Where “and” joins values, the source holds several entries; their conditions need not be identical. Equal values may be shown once.
Experiments:
Format in all cases: cell-based, human
[1] = tested on: CAM expression in ES2 cells; test: Microarray gene expression, Table 4; details: for inhibiting ratio to the control, genes related to the adhesion molecule: span over different probes of Table 4
Method: (§1) Y/D is the ratio (in folds) of gene expression in cells treated with compound Y as compared with those of the no drug control (D),
(§2) YM/D is the ratio of gene expression in cells treated with compound YM (ACH-Y, Y without sugar moiety) compared with those of the no drug control (D)
(§3) Cell culture and drug-treatment.: ES2 cells were seeded in a T-25 flask with 4.5 million cells per flask for 24 hours. Cell culture was replaced with fresh medium with xanifolia-Y (Y) or DMSO no drug control (D) for 24 hours. Cells were then harvested for RNA isolation. Three experiments were done.
(§4) RNA extraction, labeling, hybridization, and data analysis. RNA was extracted from tumor cells using the Qiagen RNeasy Kit. RNA quality and quantity was checked by the Agilent BioAnalyzer and the NanoDrop® ND-1000 spectrophotometer respectively before further manipulation. The first and second cDNA strands were synthesized from 20 ng of total RNA using the Affymetrix T7 oligo(dT) primer protocol and kit for the two-cycle amplification. To produce amplified biotin-labeled-cRNA, the cDNA was […] by in vitro transcription using the MegaScript kit from Ambion. 15.0 μg of the labeled cRNA was fragmented and re-checked for concentration using the NanoDrop® ND-1000 spectrophotometer. A hybridization cocktail containing Affymetrix spike-in controls and fragmented labeled cRNA was loaded onto the Human U133 Plus 2.0 GeneChip® oligonucleotide array. The Affymetrix array (Affymetrix, Inc. Santa Clara, Calif.) is comprised of over 1,300,000 unique oligonucleotide features that represent greater than 38,500 well-substantiated human genes. The array was hybridized for 16 hours at 45° C. with rotation at 60 rpm then washed and stained with a strepavidin, R-phycoerythrin conjugate stain on the Affymetrix Fluidicis Station 450. Signal amplification was done using biotinylated antistreptavidin. The arrays were scanned using the GeneChip® 3000 confocal laser scanner with autoloader. The images were analyzed and quality control metrics recorded using Affymetrix GCOS software version 1.4. Lastly, the expression value for each gene was calculated using dChip PM-only model based or Plier algorithm.
(§5) Pairwise comparisons were made as follows: Treated vs. Control (Y vs. D), Modified Drug vs Control (YM/ACY-H vs. D) and Treated vs. Modified Drug (Y vs. YM/ACH-Y) Cel files analyzed using the Bioconductor package of R Statistical programming. Limma analysis generated a reasonable number of changing genes between the samples.
The raw data in the .CEL files were normalized by the GCRMA method (robust multi-array analysis). It is implemented in Bioconductor (http://www.bioconductor.org/). The raw signal intensity data were normalized, background corrected and summarized based on certain statistical models, and an expression value, in log 2-scale, is obtained per chip per probe set. Then the null hypothesis was tested that there's no significant changes in gene expression between the treatment pairs. This was done by LIMMA and is also implemented in Bioconductor. It uses empirical Bayes method to estimate the variance in gene expression. One comparison was made, namely, High Grade vs. Low Grade. The raw p-values were adjusted by the Benjamnin-Hochberg method for false discovery rate (FDR) control. All data sets contained a significant number of genes with a p-value less than 0.05, which is that the probability that a gene is NOT differential expressed (false positive) is 1:20.

[2] = tested on: Fibronectin secretion from ES2 cells; test: Fibronectin secretion (Western blot), ES2 cells
[3] = tested on: Glypican expression in ES2 cells; test: Microarray gene expression, Table 13
Method: as §1, §2, §3, §4, §5
The raw data in the .CEL files were normalized by the GCRMA method (robust multi-array analysis). It is implemented in Bioconductor (http://www.bioconductor.org/). […]

[4] = ES2 cells, 10 ug/ml, listed as xanifolia-Y

| SMILES | ALCAM activated leukocyte cell adhesion molecule, gene expression ratio to no drug control (D) ([1]; probe 201951_at) [folds] | ALCAM activated leukocyte cell adhesion molecule, gene expression ratio to no drug control (D) ([1]; probe 201952_at) [folds] | SCAMP1 secretory carrier membrane protein 1, gene expression ratio to no drug control (D) ([1]; probe 206667_s_at) [folds] | SCAMP1 secretory carrier membrane protein 1, gene expression ratio to no drug control (D) ([1]; probe 212416_at) [folds] | SCAMP1 secretory carrier membrane protein 1, gene expression ratio to no drug control (D) ([1]; probe 212417_at) [folds] | SCAMP1 secretory carrier membrane protein 1, gene expression ratio to no drug control (D) ([1]; probe 212425_at) [folds] | TICAM2 toll-like receptor adaptor molecule 2, gene expression ratio to no drug control (D) ([1]; probe 228234_at) [folds] | TICAM2 toll-like receptor adaptor molecule 2, gene expression ratio to no drug control (D) ([1]; probe 239431_at) [folds] | ALCAM activated leukocyte cell adhesion molecule, gene expression ratio to no drug control (D) ([1]; probe 240655_at) [folds] | inhibiting ratio to the control, genes related to the adhesion molecule [1] [folds] | GPC6 Glypican 6, gene expression ratio to no drug control (D) ([3]; probe 227059_at) [folds] | GPC6 Glypican 6, gene expression ratio to no drug control (D) ([3]; probe 243865_x_at) [folds] | other results |
| --- | --- | --- | --- | --- | --- | --- | --- | --- | --- | --- | --- | --- | --- |
| C/C=C(/C)C(=O)O[C@H]1[C@H](OC(=O)/C(C)=C\C)[C@@]2(CO)C(CC1(C)C)C1=CCC3[C@@]4(C)CC[C@H](O)C(C)(C)C4CC[C@@]3(C)[C@]1(C)[C@@H](O)[C@H]2O (some centres unmarked) [ACH-Y] | −1.7 | −1.4 | −1.5 | −1.1 | −1.4 | −1.5 | −1.3 | −1.3 | −1.3 | −1.1 to −1.7 | −1.8 | −2.0 | % inhibition of Fibronectin secretion ([2]; ES2 cells, 10 ug/ml): less (or not observed); Fibronectin secreted / FN band intensity, % of DMSO control ([2]; ES2 cells, 20 ug/ml): 53%-75%; inhibition at 20 µg/mL ([2]; Homo sapiens, ES-2, ES2 cells, 20 ug/ml): 48% |
| C/C=C(/C)C(=O)O[C@H]1[C@H](OC(=O)/C(C)=C\C)[C@@]2(CO)C(CC1(C)C)C1=CCC3[C@@]4(C)CC[C@H](O[C@@H]5OC(C(=O)O)[C@@H](O)C(O[C@@H]6O[C@@H](CO)C(O)C6O)C5O[C@@H]5OC(CO)[C@H](O)C(O)C5O)C(C)(C)C4CC[C@@]3(C)[C@]1(C)[C@@H](O)[C@H]2O (stereo partly drawn) [Xanifolia-Y, 3-O-[β-D-galactopyranosyl (1→2)]-α-L-arabinofuranosy (1→3)-β-D-glucuronopyranosyl-21,22-O-diangeloyl-3β, 15α, 16α, 21β, 22α, 28-hexahydroxyolean-12-ene] | −1.9 | −1.9 | −1.3 | −1.3 | −1.4 | −1.7 | −1.3 | −1.3 | −1.6 | −1.3 to −1.9 | −2.2 | −2.7 | secretion of Fibronectin to medium over time ([2]; ES2 cells, 10 ug/ml, 1 to 24 hour): no or only minimally secretion of Fibronectin; reduction of Fibronectin secretion ([2]; ES2 cells, 10 ug/ml, 18 hours): 40%; reduction of Fibronectin secretion ([2]; ES2 cells, 10 ug/ml, 24 hours, listed as Y): 31% and 30-40% and 38% and 46%; reduction of Fibronectin secretion ([2]; ES2 cells, 10 ug/ml, 24 hours, listed as xanifolia-Y): 46%; reduction of FN secretion at 24 hours after removal of drug ([2]; ES2 cells, 10 ug/ml, drug removed at 4 or 8 hours): over 50%; Fibronectin secreted / FN band intensity, % of DMSO control ([2]; ES2 cells, 10 ug/ml, listed as Y): 62% and 51% and 54%; % inhibition of Fibronectin secretion ([2]; ES2 cells, 10 ug/ml, listed as Y3): 47%; % inhibition of Fibronectin secretion [2, 4]: 49%; Fibronectin secreted / FN band intensity, % of DMSO control [2, 4]: 54%; earliest time at which inhibition of Fibronectin was observed ([2]; ES2 cells, after drug-treatment): 8 h; change in Fibronectin secretion ([2]; ES2 cells, first 7 hours of treatment): not noticeable |
